Test results: patent publication US9708286B2, “Ingenol-3-acylates III and ingenol-3-carbamates” (LEO Laboratories Limited, priority 2010, dated 2017)
Read-outs that look alike come from different tables or passages of the source.

Columns and labels:
Format in all cases: cell-based
HeLa cells = experiment: Necrosis assay; settings: Homo sapiens, 0.5 h, read-out: HeLa necrosis EC50 range
In short: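 HeLa cells treated with compound at 10 μM to 400 μM (final) for 30 min at 37° C., viability then measured by PrestoBlue fluorescence (ex 535/em 630 nm). Normalized to 1% DMSO and 400 μM ingenol mebutate controls; AbsEC50 from four-parameter sigmoidal fit.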

[1] = tested on: Primary human epidermal keratinocytes, HeKa; experiment: HeKa cytokine release (IL-8); settings: Homo sapiens, read-out: HeKa cytokine release (IL-8) Rel EC50 range
In short: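 Seeded cells exposed to compound dilutions for 6 h at 37° C; IL-8 in supernatant quantified by MSD sandwich electrochemiluminescence immunoassay. Effects normalized to positive control (1.5×10^−7 M PEP0005), four-parameter sigmoidal fit; Rel EC50 is concentration midway between fitted top and bottom.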

[2] = tested on: PMN's (polymorphonuclear leukocytes); experiment: Neutrophil oxidative burst; settings: Leukocyte, 40 min, normalized to 5×10^−7 M PEP0005
In short: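 Human buffy-coat neutrophils (2.5×10^5/well) in HBSS with 0.1% BSA, 5 mM glucose treated with compound premixed with 10 μM hydroethidine for 40 min at RT; fluorescence read at 485/579 nm. Normalized to 5×10^−7 M PEP0005; Rel EC50 is midway between fitted top and bottom, Abs EC50 gives 50% of PEP0005 maximum.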

[3] = read-out: Neutrophil oxidative burst Rel EC50 range, PMN from buffy coats, 40 min at RT, hydroethidine fluorescence

CC1=C[C@]23C(=O)[C@@H](C=C(CO)[C@@H](O)[C@]2(O)[C@H]1OC(=O)N1c2ccccc2OCC1C)[C@H]1[C@@H](C[C@H]3C)C1(C)C (stereo partly drawn) [Compound 739, Ingenol 3-(3-methyl-2,3-dihydro-1,4-benzoxazine-4-carboxylate)]
EC50 (HeLa cells; HeLa): < 150000 nM
EC50 ([1]; HEKa, 6 h): < 20 nM
EC50 [2, 3]: < 20 nM

CC1=C[C@]23C(=O)[C@@H](C=C(CO)[C@@H](O)[C@]2(O)[C@H]1OC(=O)N(C)c1cccc(C)c1)[C@H]1[C@@H](C[C@H]3C)C1(C)C [Compound 743, Ingenol 3-(N-methyl-N-(3-methyl-phenyl)-carbamate)]
EC50 (HeLa cells; HeLa): 150000 to 350000 nM
EC50 ([1]; HEKa, 6 h): < 20 nM
EC50 [2, 3]: < 20 nM

CC1=C[C@]23C(=O)[C@@H](C=C(CO)[C@@H](O)[C@]2(O)[C@H]1OC(=O)N1CCNc2ccccc21)[C@H]1[C@@H](C[C@H]3C)C1(C)C [Compound 744, Ingenol 3-(3,4-dihydro-2H-quinoxaline-1-carboxylate)]
EC50 (HeLa cells; HeLa): 150000 to 350000 nM
EC50 ([1]; HEKa, 6 h): 20 to 100 nM
EC50 [2, 3]: 20 to 100 nM

CC1=C[C@]23C(=O)[C@@H](C=C(CO)[C@@H](O)[C@]2(O)[C@H]1OC(=O)N1Cc2ccccc2C1)[C@H]1[C@@H](C[C@H]3C)C1(C)C [Compound 745, Ingenol 3-(isoindoline-2-carboxylate)]
EC50 (HeLa cells; HeLa): 150000 to 350000 nM
EC50 ([1]; HEKa, 6 h): < 20 nM
EC50 [2, 3]: < 20 nM

CC1=C[C@]23C(=O)[C@@H](C=C(CO)[C@@H](O)[C@]2(O)[C@H]1OC(=O)N(C)CC1CCOCC1)[C@H]1[C@@H](C[C@H]3C)C1(C)C [Compound 746, Ingenol 3-(N-methyl-N-(tetrahydropyran-4-ylmethyl)-carbamate)]
EC50 (HeLa cells; HeLa): > 350000 nM
EC50 ([1]; HEKa, 6 h): > 100 nM
EC50 [2, 3]: 20 to 100 nM

CC1=C[C@]23C(=O)[C@@H](C=C(CO)[C@@H](O)[C@]2(O)[C@H]1OC(=O)N(C)C1CCOCC1)[C@H]1[C@@H](C[C@H]3C)C1(C)C [Compound 747, Ingenol 3-(N-methyl-N-(tetrahydropyran-4-yl)-carbamate)]
EC50 (HeLa cells; HeLa): > 350000 nM
EC50 ([1]; HEKa, 6 h): > 100 nM
EC50 [2, 3]: 20 to 100 nM

COc1cccc(N(C)C(=O)O[C@H]2C(C)=C[C@]34C(=O)[C@@H](C=C(CO)[C@@H](O)[C@]23O)[C@H]2[C@@H](C[C@H]4C)C2(C)C)c1 [Compound 748, Ingenol 3-(N-methyl-N-(3-methoxy-phenyl)-carbamate)]
EC50 (HeLa cells; HeLa): 150000 to 350000 nM
EC50 ([1]; HEKa, 6 h): 20 to 100 nM
EC50 [2, 3]: < 20 nM

CC1=C[C@]23C(=O)[C@@H](C=C(CO)[C@@H](O)[C@]2(O)[C@H]1OC(=O)N(C)c1nc(C)cs1)[C@H]1[C@@H](C[C@H]3C)C1(C)C [Compound 752, Ingenol 3-(N-methyl-N-(4-methylthiazol-2-yl)-carbamate)]
EC50 (HeLa cells; HeLa): 150000 to 350000 nM
EC50 ([1]; HEKa, 6 h): < 20 nM
EC50 [2, 3]: < 20 nM

CC1=C[C@]23C(=O)[C@@H](C=C(CO)[C@@H](O)[C@]2(O)[C@H]1OC(=O)N(C)c1ccc(C#N)cc1)[C@H]1[C@@H](C[C@H]3C)C1(C)C [Compound 753, Ingenol 3-(N-(4-cyano-phenyl)-N-methyl-carbamate)]
EC50 (HeLa cells; HeLa): 150000 to 350000 nM
EC50 ([1]; HEKa, 6 h): 20 to 100 nM
EC50 [2, 3]: 20 to 100 nM

C/C=C(/C)C(=O)O[C@H]1C(C)=C[C@]23C(=O)[C@@H](C=C(CO)[C@@H](O)[C@]12O)[C@H]1[C@@H](C[C@H]3C)C1(C)C [Ingenol mebutate, Ingenol-3-angelate, reference compound]
EC50 (HeLa cells; HeLa cells, 30 min at 37° C., PrestoBlue, AbsEC50, normalized to 400 μM ingenol mebutate): 150000 to 350000 nM
EC50 ([1]; HeKa cells, 6 h at 37° C., IL-8 by MSD assay, normalized to 1.5×10^−7 M PEP0005): < 20 nM
EC50 ([2]; PMN from buffy coats, 40 min at RT, hydroethidine fluorescence, read-out: Neutrophil oxidative burst Rel EC50 range): < 20 nM
